# From a melting point compilation (Tetko et al.; mined from patent text by program, amines drawn as free bases though some values may be those of a salt)
row,SMILES,melting point [°C]
1,CC(C)(C)OC(=O)N[C@H](Cc1ccccc1)C(=O)N1CCC[C@H]1C(=O)NC1CCc2n[nH]cc2C1 (stereo not given in full),108 to 110
2,FC(F)(F)c1ccc2nnc(-c3cccc(Cl)c3Cl)n2c1,100 to 101
3,CS(=O)c1cc(-c2ccc(C(F)(F)F)cc2)ccc1C#N (stereo not given),127 to 128
4,CN(C(=O)c1cnc(N2CC(C)(C)NC2=O)nc1N)c1cccc(C(F)(F)F)c1,210 to 211
5,NC1CCc2[nH]c3ccccc3c2C1 (stereo not given),160 to 166
6,NS(=O)(=O)c1cc(C(=O)O)cc([N+](=O)[O-])c1Nc1cccc(C(F)(F)F)c1,213 to 215
7,O=C1C(N2CCOCC2)=CCCN1c1ccc(I)cc1,138 to 148
8,CC12CCC(=O)C=C1CCC1C2CCC2(C)C1CCC2(OC=O)C(=O)CCl (stereo not given),202
9,CCOC(=O)c1ccc(NC(=O)[C@H](CO)NS(=O)(=O)c2ccc(Cl)cc2)cc1,157 to 160
10,COc1cccc2c1CCC1CCC(=O)N(C)CC21 (stereo not given),123 to 124
11,CCc1nc(N)nc(O)c1I,199 to 200
12,S=c1nc(-c2ccc(Cl)c(Cl)c2)[nH]n1Cc1ccccc1,227 to 228
13,CC(C(=O)O)c1ccc(-c2ccc(O)cc2)c(F)c1 (stereo not given),195 to 197
14,COc1ccc(CC(=O)NCCc2ccccc2)cc1OC,123 to 124
15,CCOC(=O)c1nocc1Cn1nnnc1-c1cccc(Cl)c1Cl,161 to 163
16,O=C1CCC(N2C(=O)c3cccc(CNC(=O)Nc4ccccn4)c3C2=O)C(=O)N1 (stereo not given),> 260
17,CCCCc1nn(-c2cc(N)ccc2C(F)(F)F)c(=O)n1Cc1ccc(-c2ccccc2S(=O)(=O)NC(=O)OC(C)(C)C)cc1,154 to 156
18,COCc1cc(N(C)C)ncn1,42 to 44
19,CC(=O)c1cc(F)ccc1Oc1nc2ccc(-n3cc(-c4ccccc4)nn3)cc2cc1Cc1ccccc1,183
20,CC1(C)OC[C@@H](COn2cnc3c(Cl)nc(N)nc32)O1,118 to 120
21,CCOP(=O)(Cc1ccc(N(C(=O)c2cc3c(s2)-c2c(SC)sc(C(N)=O)c2CC3)c2ccc(CP(=O)(OCC)OCC)cc2)cc1)OCC,262 to 263
22,O=C(O)Cc1cc(Cl)c(O)cc1F,137 to 138
23,COc1ccc(OCC(=O)c2ccccc2)c([N+](=O)[O-])c1,88 to 90
24,CCOC(=O)C1=C(COCc2nnc(C)s2)NC(C)=C(C(=O)OC)C1c1cccc(Cl)c1Cl (stereo not given),140 to 144
25,Cc1ccc(CC2CCN(CCOc3ccc4c(c3)=NC(=S)N=4)CC2)cc1,271 to 273

row,SMILES,melting point [°C]
1,O=C1NC(=Cc2cccc(Cl)c2)C(=O)C1=NO,185
2,COC(=O)C(=CNc1ccc(O)cc1C)C(=O)C=CC1=CCCC1,148 to 151
3,CCc1cc(-c2ccc(-c3cc[nH]n3)cc2)ccc1OC,164 to 168
4,COC(=O)c1ccc(/C=C/C(=O)O)s1,180
5,Cn1c(=O)[nH]c(=O)c2cccnc21,277 to 285
6,CCOC(=O)CCCCC(c1ccc(C)s1)N(O)C(N)=O (stereo not given),106 to 107
7,CC(=O)N1CCC(CCCC(=O)c2ccc3c(c2)CCNCC3)CC1,90 to 91
8,CNC(=O)c1ccccc1Nc1nc(Nc2ccc3c(c2)NCCNC3=O)ncc1Cl,232 to 237
9,CC(=O)NC1=NCC(c2ccccc2)CN1 (stereo not given),246 to 249
10,OC12C=C(C3NCCc4c3[nH]c3ccccc43)C3CCN(CCCCC=CCC1)CC31CC3C=CCCCCN3C21 (stereo not given),165 to 168
11,Cc1ccc(-c2cn(C)c(-c3nc(-c4ccc(C)s4)cn3C)n2)s1,220 to 228
12,c1ccc(-c2csc3ncnc(NCc4ccco4)c23)cc1,77 to 79
13,COC(=O)C(C)C(=O)Nc1ccc(OCc2cccc(F)c2)cc1 (stereo not given),119
14,Cc1ccc(C(=O)OCCN(C)C)cc1-n1c(C)cc(OCc2ccccc2CNC(=O)Nc2cc(C(C)(C)C)nn2-c2cccc(OCCO)c2)c(Cl)c1=O,164 to 165
15,CC1(C)CC(O)CC(C)(C)N1C#N,96 to 98
16,COc1cc(C2(C=O)C=CC=CC2)ccc1OCCCN1CCC(c2noc3cc(F)ccc23)CC1 (stereo not given),128 to 130
17,O=C1c2ccccc2-n2cnc(-c3nc(CN4Cc5ccccc5C4)no3)c2[C@@H]2CCN12,210 to 213
18,COc1ccc(C=CC=O)cc1OCc1nc(-c2ccccc2)oc1C,136 to 137
19,CN1Cc2c(C#N)ncn2-c2ccc(Cl)cc2C1=O,272 to 275
20,OC1Cc2ccc(F)cc2Sc2ccc(I)cc21 (stereo not given),162
21,O=C(O)c1cn(C2CC2)c2cc(N3CCC3)c(F)cc2c1=O,291 to 294
22,COc1ccc(Oc2ccc(Cl)cc2[N+](=O)[O-])c(C=O)c1,127 to 128
23,O=C(NCc1ccccc1)c1nn(-c2ccc(Cl)cc2)c2c1C1CCC2C1 (stereo not given),112 to 115
24,CC(C)(C)C1c2ccccc2-c2ccccc2N1S(=O)(=O)c1ccc(O)cc1 (stereo not given),187 to 189
25,N#Cc1ccc(N(Cc2ccc(OCc3ccccc3)cc2)n2cncn2)cc1-c1ccccc1,112 to 113
